ChEMBL document CHEMBL5321295, “Targeted Degradation of Alpha-Synuclein by Autophagosome-Anchoring Chimera Peptides” (J Med Chem, 2023)
The source made the active and inactive calls. The calls are words filed in the database; no cut-off is given here.

Columns and labels:
[1] = target: T1, Microtubule-associated protein 1 light chain 3 beta (Homo sapiens, UniProt Q9GZQ8); experiment: Induction of LC3B-mediated autophagy flux in HEK293T cells overexpressing alpha-synuclein (unknown origin) cotransfected with adenovirus-packaged plasmid encoding mCherry-EGFP-fused LC3B assessed as increase in density of lysosomes upto 100 uM incubated for 4 hrs by LyTR staining based confocal laser scanning microscopy; type: cell-based
[2] = tested on: SH-SY5Y; experiment: Cytoprotective activity in human SH-SY5Y cells transfected with alpha-synuclein (unknown origin) assessed as late apoptotic cells at 100 uM measured after 24 hrs by […] based flow cytometry (reference value: 56.6 %); type: functional
[3] = target: T1, Microtubule-associated protein 1 light chain 3 beta; experiment: Induction of LC3B-mediated autophagy flux in HEK293T cells overexpressing alpha-synuclein (unknown origin) cotransfected with adenovirus-packaged plasmid encoding mCherry-EGFP-fused LC3B assessed as increase in number of autolysosomes incubated for 4 hrs by confocal laser scanning microscopy; type: cell-based; details: dose <= 100.0 µM
[4] = target: T2, Alpha-synuclein (Homo sapiens, UniProt P37840); experiment: Induction of alpha-synuclein (unknown origin) degradation overexpressed in HEK293T cells pretreated with BafA1 at 50 uM incubated for 24 hrs by immunoblot analysis; type: cell-based
[5] = tested on: HEK-293T; experiment: Downregulation of SQSTM1 expression in HEK293T cells at 100 uM incubated for 24 hrs by proteomic profiling analysis; type: functional, cell-based; details: Homo sapiens
[6] = tested on: Mus musculus; experiment: Neuroprotective activity in MPTP-induced cognitive impairment in C57BL/6 mouse assessed as decrease in escape latency in navigation trial phase at 50 mg/kg/day, iv treated for 5 days measured after 5 to 8 days days by morris water maze test; type: functional, organism-based; details: time 10-13 day
[7] = tested on: Mus musculus; experiment: Neuroprotective activity in MPTP-induced cognitive impairment in C57BL/6 mouse assessed as decrease in mean speed in navigation trial phase at 50 mg/kg/day, iv treated for 5 days measured after 5 to 8 days days by morris water maze test; type: functional, organism-based; details: time 10-13 day
[8] = Toxicity in C57BL/6 mouse assessed as change in creatinine level at 50 to 200 mg/kg/day treated for 5 days; type: organism-based; details: in vivo, 120 h, dose 50-200 mg/kg/day, time 5 day
[9] = tested on: HEK-293T; experiment: Downregulation of UBE2L3 expression in HEK293T cells at 100 uM incubated for 24 hrs by proteomic profiling analysis; type: functional, cell-based; details: Homo sapiens
[10] = tested on: HEK-293T; experiment: Downregulation of SLC25A3 expression in HEK293T cells at 100 uM incubated for 24 hrs by proteomic profiling analysis; type: functional, cell-based; details: Homo sapiens
[11] = tested on: HEK-293T; experiment: Downregulation of AKR1B1 expression in HEK293T cells at 100 uM incubated for 24 hrs by proteomic profiling analysis; type: functional, cell-based; details: Homo sapiens
[12] = target: T2, Alpha-synuclein; experiment: Binding affinity to alpha-synuclein (unknown origin) overexpressed in HEK293T cells at 50 to 100 uM incubated for 4 hrs by co-IP assay; type: cell-based; details: dose 50-100 µM
[13] = target: T2, Alpha-synuclein; experiment: Induction of alpha-synuclein (unknown origin) degradation overexpressed in HEK293T cells infected with adenovirus expressing mCherry-EGFP-LC3B at 50 uM incubated for 3 hrs by immunoblot analysis; type: cell-based
[14] = target: T2, Alpha-synuclein; experiment: Induction of alpha-synuclein (unknown origin) degradation overexpressed in HEK293T cells at 50 uM incubated for 24 hrs in presence of Rapamycin by immunoblot analysis; type: cell-based
[15] = tested on: HEK-293T; experiment: Downregulation of MAT1A expression in HEK293T cells at 100 uM incubated for 24 hrs by proteomic profiling analysis; type: functional, cell-based; details: Homo sapiens
[16] = tested on: HEK-293T; experiment: Downregulation of PSMB7 expression in HEK293T cells at 100 uM incubated for 24 hrs by proteomic profiling analysis; type: functional, cell-based; details: Homo sapiens
[17] = tested on: HEK-293T; experiment: Downregulation of DLST expression in HEK293T cells at 100 uM incubated for 24 hrs by proteomic profiling analysis; type: functional, cell-based; details: Homo sapiens
[18] = Toxicity in C57BL/6 mouse assessed as lethargy at 50 to 200 mg/kg/day treated for 5 days; type: organism-based; details: in vivo, 120 h, dose 50-200 mg/kg/day, time 5 day
[19] = Toxicity in C57BL/6 mouse assessed as change in LDH1 level at 50 to 200 mg/kg/day treated for 5 days; type: organism-based; details: in vivo, 120 h, dose 50-200 mg/kg/day, time 5 day
[20] = Toxicity in C57BL/6 mouse assessed as change in uric acid level at 50 to 200 mg/kg/day treated for 5 days; type: organism-based; details: in vivo, 120 h, dose 50-200 mg/kg/day, time 5 day
[21] = tested on: HEK-293T; experiment: Downregulation of EIF2S1 expression in HEK293T cells at 100 uM incubated for 24 hrs by proteomic profiling analysis; type: functional, cell-based; details: Homo sapiens
[22] = Drug localization in HEK293T cells overexpressing mCherry-fused alpha-synuclein (unknown origin) assessed as colocalization of autophagosomes at 50 uM incubated for 2 hrs by LyTG staining based confocal laser scanning microscopy; type: ADME, cell-based; details: human, hek-293t
[23] = Drug localization in HEK293T cells overexpressing mCherry-fused alpha-synuclein (unknown origin) assessed as colocalization of lysosomes at 50 uM incubated for 2 hrs by LyTG staining based confocal laser scanning microscopy; type: ADME, cell-based; details: human, hek-293t
[24] = tested on: SH-SY5Y; experiment: Cytoprotective activity against CCCP-induced cytotoxicity in human SH-SY5Y cells assessed as cell viability at 100 uM by CCK8 assay; type: functional, cell-based
[25] = tested on: HEK-293T; experiment: Downregulation of NACA expression in HEK293T cells at 100 uM incubated for 24 hrs by proteomic profiling analysis; type: functional, cell-based; details: Homo sapiens
[26] = Toxicity in C57BL/6 mouse assessed as tremor at 50 to 200 mg/kg/day treated for 5 days; type: organism-based; details: in vivo, 120 h, dose 50-200 mg/kg/day, time 5 day
[27] = Toxicity in C57BL/6 mouse assessed as change in urea level at 50 to 200 mg/kg/day treated for 5 days; type: organism-based; details: in vivo, 120 h, dose 50-200 mg/kg/day, time 5 day
[28] = tested on: HEK-293T; experiment: Downregulation of DYNC1I2 expression in HEK293T cells at 100 uM incubated for 24 hrs by proteomic profiling analysis; type: functional, cell-based; details: Homo sapiens
[29] = Drug localization in HEK293T cells overexpressing mCherry-fused alpha-synuclein (unknown origin) assessed as colocalization of autophagosomes at 50 uM incubated for 2 hrs by MDC staining based confocal laser scanning microscopy; type: ADME, cell-based; details: human, hek-293t
[30] = tested on: HEK-293T; experiment: Downregulation of VAT1 expression in HEK293T cells at 100 uM incubated for 24 hrs by proteomic profiling analysis; type: functional, cell-based; details: Homo sapiens
[31] = tested on: Mus musculus; experiment: Downregulation of total aggregated protein level in substantia nigra pars compacta of MPTP-treated C57BL/6 mouse at 50 mg/kg/day, iv treated for 5 days by ThS staining based analysis; type: functional, organism-based; details: time 5.0 day
[32] = tested on: HEK-293T; experiment: Downregulation of AGPS expression in HEK293T cells at 100 uM incubated for 24 hrs by proteomic profiling analysis; type: functional, cell-based; details: Homo sapiens
[33] = Toxicity in C57BL/6 mouse assessed as change in creatine kinase level at 50 to 200 mg/kg/day treated for 5 days; type: organism-based; details: in vivo, 120 h, dose 50-200 mg/kg/day, time 5 day
[34] = tested on: HEK-293T; experiment: Downregulation of SNCA expression in HEK293T cells at 100 uM incubated for 24 hrs by proteomic profiling analysis; type: functional, cell-based; details: Homo sapiens
[35] = target: T1, Microtubule-associated protein 1 light chain 3 beta; experiment: Induction of LC3B-mediated autophagy flux in HEK293T cells overexpressing alpha-synuclein (unknown origin) assessed as increase in ratio of LC3B-II to LC3B-I levels incubated for 4 hrs by immunoblot analysis; type: cell-based; details: dose <= 100.0 µM
[36] = Toxicity in C57BL/6 mouse assessed as body weight loss at 50 to 200 mg/kg/day treated for 5 days; type: organism-based; details: in vivo, 120 h, dose 50-200 mg/kg/day, time 5 day
[37] = tested on: Mus musculus; experiment: Downregulation of phosphorylated alpha-synuclein at S129 residue level in substantia nigra pars compacta of MPTP-treated C57BL/6 mouse at 50 mg/kg/day, iv treated for 5 days by IHC analysis; type: functional, organism-based; details: time 5.0 day

For `CC(C)C[C@H](NC(=O)[C@H](Cc1c[nH]cn1)NC(=O)[C@@H](NC(=O)[C@H](Cc1c[nH]c2ccccc12)NC(=O)[C@H](CC(=O)O)NC(=O)[C@H](CC(=O)O)NC(=O)[C@H](CC(=O)O)NC(=O)CNC(=O)CNC(=O)[C@H](CO)NC(=O)[C@H](CO)NC(=O)CNC(=O)[C@H](CO)NC(=O)CNC(=O)[C@H](CCCNC(=N)N)NC(=O)[C@@H](NC(=O)[C@H](CCCCN)NC(=O)[C@H](CO)NC(=O)CNC(=O)[C@@H](NC(=O)[C@H](Cc1ccc(O)cc1)NC(=O)[C@H](CC(C)C)NC(=O)[C@@H](NC(=O)CN)C(C)C)C(C)C)[C@H](C)O)[C@@H](C)O)C(=O)N[C@@H](CO)C(=O)N[C@@H](CO)C(=O)N[C@@H](Cc1ccc(O)cc1)C(=O)NCC(=O)N[C@@H](CCCNC(=N)N)C(=O)N[C@@H](CCCCN)C(=O)N[C@@H](CCCCN)C(=O)N[C@@H](CCCNC(=N)N)C(=O)N[C@@H](CCCNC(=N)N)C(=O)N[C@@H](CCC(N)=O)C(=O)N[C@@H](CCCNC(=N)N)C(=O)N[C@@H](CCCNC(=N)N)C(=O)N[C@@H](CCCNC(=N)N)C(=O)O`, the Activity [1] was “Active”, the Activity [2] was 79.7% and the Activity [3] was “Dose-Dependent Effect”. For the same molecule, the Activity [4] was “inactive”, the Activity [5] was “Active” and the Activity [6] was “Active”. The Activity [7] was “Active”, the Activity [8] was “Non-Toxic” and the Activity [9] was “Active”. For the same molecule, the Activity [10] was “Active”, the Activity [11] was “Active” and the Activity [12] was “Active”. The Activity [13] was “Active”, the Activity [14] was “Active” and the Activity [15] was “Active”. The Activity [16] was “Active”, the Activity [17] was “Active” and the Activity [18] was “Non-Toxic”. The Activity [19] was “Non-Toxic”, the Activity [20] was “Non-Toxic” and the Activity [21] was “Active”. For the same molecule, the Drug uptake [22] was “Active”, the Drug uptake [23] was “Active” and the Activity [24] was “inactive”. For the same molecule, the Activity [25] was “Active”, the Activity [26] was “Non-Toxic” and the Activity [27] was “Non-Toxic”. The Activity [28] was “Active”, the Drug uptake [29] was “Active” and the Activity [30] was “Active”. For the same molecule, the Activity [31] was “Active”, the Activity [32] was “Active” and the Activity [33] was “Non-Toxic”. For the same molecule, the Activity [34] was “Active”, the Activity [35] was “Dose-Dependent Effect” and the Activity [36] was “Non-Toxic”. The Activity [37] was “Active”.
